Measurements from patent publication US10508109B2 (priority 2015, dated 2019).
Read-outs that look alike come from different tables or passages of the source.

What was measured:
A549 = experiment: Cell-based assay, anti-proliferative activity (Cell Counting Kit-8, 72 hours); conditions: Homo sapiens, read-out: IC50 (μM) A549
Outline: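 Following seeding into 96-well microtiter plates, the cells receive candidate inhibitors, and cellular growth is quantified at the end of the exposure period. An IC50 is computed for each compound.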

CCD-18Co = experiment: as above; conditions: Homo sapiens, read-out: IC50 (μM) CCD-18Co
Outline: (§1)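 Cells were seeded in 96-well plates and exposed to the inhibitors for 72 hours, after which growth was measured with Cell Counting Kit-8. IC50 was derived from a serial dilution series of 0, 1.5625, 3.125, 6.25, 12.5, 25, 50 and 100 micro-M.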

HCT-116 = experiment: as above; conditions: Homo sapiens, read-out: IC50 (μM) HCT-116
Outline: as §1

HFL1 = experiment: as above; conditions: Homo sapiens, read-out: IC50 (μM) HFL1
Outline: as §1

PC14 = experiment: as above; conditions: Homo sapiens, PC-14; PC14 cells, 72 hours, Cell Counting Kit-8; read-out: IC50 (μM) PC14
Outline: as §1

SUV39H2 = SUV39H2 (Homo sapiens (Human), UniProt Q9H5I1); conditions: read-out: IC50 (μM) Suv 39H2 assay; enzyme assay
Chain of SUV39H2 (Q9H5I1 whole entry): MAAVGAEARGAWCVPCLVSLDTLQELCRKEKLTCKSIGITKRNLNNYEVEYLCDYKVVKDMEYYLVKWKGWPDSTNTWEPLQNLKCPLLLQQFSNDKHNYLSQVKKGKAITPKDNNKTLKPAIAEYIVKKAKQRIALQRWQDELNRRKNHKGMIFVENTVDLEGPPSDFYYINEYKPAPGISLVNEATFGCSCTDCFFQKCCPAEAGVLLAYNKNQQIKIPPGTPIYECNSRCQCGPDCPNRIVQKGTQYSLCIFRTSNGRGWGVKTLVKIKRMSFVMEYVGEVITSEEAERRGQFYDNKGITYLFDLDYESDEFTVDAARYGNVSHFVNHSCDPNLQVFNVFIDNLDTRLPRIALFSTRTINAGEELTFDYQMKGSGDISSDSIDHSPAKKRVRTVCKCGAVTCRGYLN

[1] = A549 cells, Cell Counting Kit-8, 72 hours
[2] = CCD-18Co cells, Cell Counting Kit-8, 72 hours
[3] = HCT-116 cells, Cell Counting Kit-8, 72 hours
[4] = HFL1 cells, Cell Counting Kit-8, 72 hours

SMILES | IC50 (A549; A549 cells, 72 hours, Cell Counting Kit-8) [µM] | IC50 (CCD-18Co; CCD-18Co cells, 72 hours, Cell Counting Kit-8) [µM] | IC50 (HCT-116; HCT-116 cells, 72 hours, Cell Counting Kit-8) [µM] | IC50 (HFL1; HFL1 cells, 72 hours, Cell Counting Kit-8) [µM] | IC50 (PC14) [µM] | IC50 (A549; [1]) [µM] | IC50 (CCD-18Co; [2]) [µM] | IC50 (HCT-116; [3]) [µM] | IC50 (HFL1; [4]) [µM] | IC50 (SUV39H2) [µM] | IC50 (A549; A549, 72 h) [µM] | IC50 (CCD-18Co; CCD-18Co, 72 h) [µM] | IC50 (HCT-116; HCT-116, 72 h) [µM] | IC50 (HFL1; HFL1, 72 h) [µM]
COc1cc(OC)c(-c2cn3ccc(NC(=O)C(N)CCCCN)cc3n2)cc1Cl (stereo in doubt) [Example 247, (S)-2,6-diamino-N-(2-(5-chloro-2,4-dimethoxyphenyl)imidazo[1,2-a]-pyridin-7-yl)hexanamide] | 10 | 10 | 10 | 10 | 5.7 | – | – | – | – | – | – | – | – | –
COC(=O)NCCNc1cn2cc(-c3cc(Cl)c(OC)cc3OC)nc2cc1OC [Example 91, methyl (2-((2-(5-chloro-2,4-dimethoxyphenyl)-7-methoxyimidazo[1,2-a]-pyridin-6-yl)amino)ethyl)carbamate] | – | – | – | – | – | 3.1 | 4.7 | 2.2 | 2.9 | 0.0263 | – | – | – | –
COc1cc(OC)c(-c2cn3ccc(N4CCC(N(C)C)CC4)cc3n2)cc1Cl [Example 92, 1-(2-(5-chloro-2,4-dimethoxyphenyl)imidazo[1,2-a]pyridin-7-yl)-N,N-dimethylpiperidin-4-amine] | – | – | – | – | – | 6 | 8.8 | 7 | 5.5 | 0.0135 | – | – | – | –
COc1cc(OC)c(-c2cn3ccc(N4CCOCC4)cc3n2)cc1C#N [Example 93, 2,4-Dimethoxy-5-(7-morpholinoimidazo[1,2-a]pyridin-2-yl)benzonitrile] | – | – | – | – | – | – | – | – | – | 0.0119 | 6.4 | 6.3 | 6.4 | 9.6
COc1cc(OCCN(C)C)c(-c2cn3ccc(N4CCOCC4)cc3n2)cc1Cl [Example 98, 2-(4-chloro-5-methoxy-2-(7-morpholinoimidazo[1,2-a]pyridin-2-yl)-phenoxy)-N,N-dimethylethanamine] | – | – | – | – | – | 22 | 9.9 | 13 | 15 | 0.0372 | – | – | – | –
COc1cc(OC)c(-c2cn3cc(C4=CCNCC4)c(N4CCOCC4)cc3n2)cc1Cl [Example 101, 4-(2-(5-chloro-2,4-dimethoxyphenyl)-6-(1,2,3,6-tetrahydropyridin-4-yl)imidazo[1,2-a]pyridin-7-yl)morpholine] | – | – | – | – | – | 8.3 | 6.6 | 8.6 | 7.5 | 0.0105 | – | – | – | –
COC(=O)N1CC=C(c2ccn3cc(-c4cc(Cl)c(OC)cc4OC)nc3c2)CC1 [Example 102, methyl 4-[2-(5-chloro-2,4-dimethoxyphenyl)imidazo[1,2-a]pyridin-7-yl]-5,6-dihydropyridine-1(2H)-carboxylate] | – | – | – | – | – | 1.6 | 2.8 | 1.9 | 2.3 | 0.0756 | – | – | – | –
COCCN1CCN(c2ccn3cc(-c4cc(Cl)c(OC)cc4OC)nc3c2)CC1 [Example 105, 2-(5-chloro-2,4-dimethoxyphenyl)-7-(4-(2-methoxyethyl)piperazin-1-yl)imidazo[1,2-a]pyridine] | – | – | – | – | – | 7.2 | 8.1 | 7 | 8.3 | 0.0111 | – | – | – | –
COc1cc(OC)c(-c2cn3ccc(N4CCN(C)CC4)cc3n2)cc1Cl [Example 106, 2-(5-chloro-2,4-dimethoxyphenyl)-7-(4-methylpiperazin-1-yl)imidazo[1,2-a]pyridine] | – | – | – | – | – | 6.3 | 6.8 | 6.8 | 3.9 | 0.0167 | – | – | – | –
CCOC(=O)N1CCN(c2ccn3cc(-c4cc(Cl)c(OC)cc4OC)nc3c2)CC1 [Example 107, ethyl 4-[2-(5-chloro-2,4-dimethoxyphenyl)imidazo[1,2-a]pyridin-7-yl]-piperazine-1-carboxylate] | – | – | – | – | – | 2.3 | 3.2 | 1.7 | 1.7 | 0.0116 | – | – | – | –
COc1cc(OC)c(-c2cn3ccc(N4CCN(CCC#N)CC4)cc3n2)cc1Cl [Example 108, 3-(4-(2-(5-chloro-2,4-dimethoxyphenyl)imidazo[1,2-a]pyridin-7-yl)piperazin-1-yl)propanenitrile] | – | – | – | – | – | 6.3 | 5.9 | 10 | 3 | 0.0142 | – | – | – | –
COc1cc(OC)c(-c2cn3ccc(C4=CCN(CCC#N)CC4)cc3n2)cc1Cl [Example 109, 3-(4-(2-(5-chloro-2,4-dimethoxyphenyl)imidazo[1,2-a]pyridin-7-yl)-5,6-dihydropyridin-1(2H)-yl)propanenitrile] | – | – | – | – | – | 5.9 | 2.6 | 5.1 | 1.8 | 0.0417 | – | – | – | –
